The test system of assay [1] is HeLa cells. Description: MTT cell viability, HeLa. Type of assay: cell-based. The conditions noted are these: Homo sapiens, MTT at 24 hours; for IC50: Hela, Table 4, read-out: IC50 (μM) Hela. The source says:
(§1) Cell Culture: HeLa, DU145, H1299, DLD1, SW480, A549, MCF7, LN18, HCT116, HepG2, Paca2, Panel, LNcap, FaDu, HT29, and PC3 cells (ATCC, Manassas, Va.) were maintained in Dulbecco's Modified Eagle Medium (DMEM) (Invitrogen, Carlsbad, Calif.) supplemented with 10% fetal bovine serum (MS) (Gemini Bio-Products, West Sacramento, Calif.) and 5% penicillin/streptomycin/amphotercin B (Invitrogen).
(§2) Cell Viability Determination: For 3-(4,5 dimethylthiazol-2-yl)-2,5-diphenyltetrazolium (MTT) (Sigma-Aldrich, St. Louis, Mo.) analysis, cells were plated in 96 well plates at 10,000 cells per well. 24 hours after plating, compound was added to cells at indicated doses. 22 hours following compound addition, MTT was added to each well (0.5 mg/ml, final concentration) and plates were incubated for an additional 2 hours at 37° C., Medium was then aspirated and the formazan product was solubilized in 100 μl of isopropyl alcohol. The absorbance of each well was measured at 570 nm using a microplate reader.
(§3) Identification of compounds that are apoptotic to a broad spectrum of cancer cells in vitro. Cells plated in 96 well plates and treated with indicated compounds were subjected to MTT analysis at 24 hours following compound treatment to determine cell viability.

For assay [2], the system named is CD44^high FaDu cells. The assay is described as follows: Anti-CSC MTT assay, CD44high FaDu cells. It is filed as cell-based. The settings on record: Homo sapiens, 48 h. The method, then:
as §2
CD44^high cells were isolated by FACS according to the methods described in Ponti et al., with slight modification. Briefly, after trypsinization and recovery of cells for 30 minutes at 37° C. in growth media, cells were pelleted at 400×g and were resuspended in PBS with 2% FBS and 1 mM EDTA at 1×10^6 cells/mL. Cells were then incubated on ice with a 1:100 dilution of CD44-FITC (BD Biosicences, San Diego, Calif.) for 15 minutes. Alternatively, CD24-PE (BD Bioscences, San Diego, Calif.) (1:100) was utilized for negative selection. After washing three times, cells were resuspended at 2×10^6/mL and passed through a […] mesh before sorting
(§4) In order to test compounds for anti-CSC activity, freshly isolated CSCs (SW480 Hoechst SP cells or CD44^high FaDu cells) were exposed to a dose range (30-0.117 μM) of compound for 48 h before examining cell viability by MTT assay. IC50s were estimated by plotting the percentage of surviving cells. As shown in Table 7 and Table 8, the compounds of present invention can target cancer stem cells.
(Tetrazolium assays rely on reduction of a dye to a coloured formazan, in cell work by metabolically active cells.)

The subject of assay [3] is CD44^low FaDu cells. Description: Anti-CSC MTT assay, CD44low FaDu cells. It is filed as cell-based. The conditions noted are these: Homo sapiens, 48 h.
In assay [4] the test system is H1299 cells. The assay is described as follows: MTT cell viability, H1299. Type of assay: cell-based. The conditions noted are these: Homo sapiens, NCI-H1299, MTT at 24 hours; for IC50: H1299, Table 4, read-out: IC50 (μM) H1299.
Excerpt: as §1, §2, §3

Assay [5] concerns SW480 NSP cells. The assay is described as follows: Anti-CSC MTT assay, SW480 non-SP (NSP) cells. The settings on record: Homo sapiens, 48 h. It is filed as cell-based. The method, then: as §2
(§5) Hoechst Side Population: To identify and isolate side population (SP) and non-SP fractions, SW480 cells were removed from the culture dish with trypsin and EDTA, pelleted by centrifugation, washed with phosphate-buffered saline (PBS), and resuspended at 37° C. in Dulbecco's modified Eagle's medium (DMEM) containing 2% FBS and 1 rnM HEPES. The cells were then labeled with Hoechst 33342 (Invitrogen) at a concentration of 5 μg/mL. The labeled cells were incubated for 120 minutes at 37° C., either alone or with 50 μM verapamil (Sigma-Aldrich, St. Louis). After staining, the cells were suspended in Hanks' balanced saline solution (MISS; Invitrogen) containing 2% FBS and 1 mM HEPES, passed a through 40 μm mesh filter, and maintained at 4° C. until flow cytometry analysis. The Hoechst dye was excited at 350 nm, and its fluorescence was measured at two wavelengths using a 450 DF10 (450/20 nm band-pass filter) and a 675LP (675 nm long-pass edge filter) optical filter. The gating on forward and side scatter was not stringent, and only debris was excluded.
as §4

The target in assay [6] is T1, Stat3 DNA-binding activity (Homo sapiens, UniProt P40763).
T1 construct: endogenous in cells; host or cells: HeLa cells (nuclear extract)
The assay is described as follows: Stat3 DNA binding assay (EMSA), HeLa nuclear extract. It is filed as biochemical. The method, then: STAT3 DNA Binding Assay: Electrophoretic mobility shift assay (EMSA) was performed as described by the manufacturer (Li-Cor Biosciences, Lincoln, Nebr.). Briefly, nuclear extracts were made from HeLa cells using the NucBuster Protein Extraction Kit as described by the manufacturer (EMD Biosciences, San Diego, Calif.). 5 μg of nuclear extract was pre-incubated with the indicated dose of indicated compound for 30 minutes prior to a 15-minute incubation with the IR700-labeled consensus Stat3 oligonucleotide. Samples were then electrophoresed on a polyacrylamide gel and directly scanned using the Odyssey infrared imaging system (Li-Cor Biosciences). For the enzyme-linked immunosorbent assay (ELISA), 5 μg of nuclear extract was preincubated with indicated concentration of indicated compound for 30 minutes prior to the addition of biotinylated oligo (5′-Biotin-[…]-3′). Stat3-DNA complexes were then captured on streptavidin coated 96 well plates (Pierce, Rockford, Ill.). Bound complexes were then incubated with Stat3 polyclonal antibody (Santa Cruz Biotechnology, Santa Cruz, Calif.) followed by anti-rabbit HRP conjugated secondary antibody (GE Healthcare, Pittsburgh, Pa.). Bound antibody was then visualized by addition of TMB substrate (Pierce) and absorbance measured at 450 nm.
Inhibition of Stat3 DNA-binding activity. Nuclear extracts from HeLa cells, which contain constitutively activated Stat3 as detected by phoshporylation at the tyrosine 705 residue, were used to perform Stat3 EMSAs to monitor Stat3 DNA binding activity. Nuclear extracts were incubated with indicated compound prior to incubation with IR700-labeled Stat3 consensus oligonucleotide. Binding of Stat3 to the oligonucleotide was monitored by gel electrophoresis and detection using a LiCor Odyssey infrared scanner.
To calculate the inhibition %, the density of the untreated Stat3 retarded band (control) was set as 100 and the inhibition % was the difference between the control and the relative DNA binding activity of the drug-treated samples.
In general terms: In EMSA bound probe runs differently from free probe, usually more slowly.

The test system of assay [7] is DU145 cells. The assay is described as follows: MTT cell viability, DU145. Type of assay: cell-based. The conditions noted are these: Homo sapiens, DU-145, MTT at 24 hours; for IC50: DU145, Table 4, read-out: IC50 (μM) DU145.
Excerpt: as §1, §2, §3

In assay [8] the test system is SW480 Hoechst SP cells. The assay is described as follows: Anti-CSC MTT assay, SW480 Hoechst side population (SP) cells. The conditions noted are these: Homo sapiens, 48 h. Type of assay: cell-based. The method, then: as §2, §5, §4
For assay [9], the system named is HCT116 cells. The assay is described as follows: MTT cell viability, HCT116. It is filed as cell-based. The conditions noted are these: Homo sapiens, HCT-116; HCT116, Colon; MTT at 24 hours; Table 3.
Excerpt: as §1, §2, §3

The subject of assay [10] is DLD1 cells. The assay is described as follows: MTT cell viability, DLD1. The settings on record: Homo sapiens, DLD-1; DLD1, Colon; MTT at 24 hours; Table 3. Type of assay: cell-based.
Excerpt: as §1, §2, §3

Assay [11] concerns SW480 cells. The assay is described as follows: MTT cell viability, SW480. Type of assay: cell-based. The conditions noted are these: Homo sapiens; SW480, Colon; MTT at 24 hours; Table 3.
Excerpt: as §1, §2, §3

In assay [12] the test system is Panc1 cells. The assay is described as follows: MTT cell viability, Panc1. It is filed as cell-based. The conditions noted are these: Homo sapiens, PANC-1; Panc1, Pancreas; MTT at 24 hours; Table 3.
Excerpt: as §1, §2, §3

Assay [13] relates to PC3 cells. Description: MTT cell viability, PC3. It is filed as cell-based. The conditions noted are these: Homo sapiens, PC-3; PC3, Prostate; MTT at 24 hours; Table 3.
Excerpt: as §1, §2, §3

The test system of assay [14] is HT29 cells. Description: MTT cell viability, HT29. Type of assay: cell-based. The settings on record: Homo sapiens, HT-29; HT29, Colon; MTT at 24 hours; Table 3.
Excerpt: as §1, §2, §3

In assay [15] the test system is MCF7 cells. The assay is described as follows: MTT cell viability, MCF7. Type of assay: cell-based. The conditions noted are these: Homo sapiens; MCF7, Breast; MTT at 24 hours; Table 3.
Excerpt: as §1, §2, §3

Assay [16] deals with A549 cells. Description: MTT cell viability, A549. It is filed as cell-based. The conditions noted are these: Homo sapiens; A549, Lung; MTT at 24 hours following compound treatment; Table 3.
Excerpt: as §1, §2, §3

Assay [17] concerns FaDu cells. Description: MTT cell viability, FaDu. It is filed as cell-based. The settings on record: Homo sapiens, MTT at 24 hours.
Excerpt: as §1, §2, §3

Assay [18] has as its system Paca2 cells. Description: MTT cell viability, Paca2. Type of assay: cell-based. The settings on record: PaCa-2; Paca2, Pancreas; MTT at 24 hours; Table 3.
Excerpt: as §1, §2, §3

For assay [19], the system named is LNCap cells. The assay is described as follows: MTT cell viability, LNCap. It is filed as cell-based. The conditions noted are these: Homo sapiens, Prostate, MTT at 24 hours, Table 3.
Excerpt: as §1, §2, §3

Assay [20] has as its system HepG2 cells. Description: MTT cell viability, HepG2. Type of assay: cell-based. The settings on record: Homo sapiens; HepG2, Liver; MTT at 24 hours; Table 3.
Excerpt: as §1, §2, §3

pIC50: −log10 of the molar value. “Also recorded” adds a separate entry of the source. Where two headings read alike, the source gives them in different places.

T1 sequence (P40763 whole entry): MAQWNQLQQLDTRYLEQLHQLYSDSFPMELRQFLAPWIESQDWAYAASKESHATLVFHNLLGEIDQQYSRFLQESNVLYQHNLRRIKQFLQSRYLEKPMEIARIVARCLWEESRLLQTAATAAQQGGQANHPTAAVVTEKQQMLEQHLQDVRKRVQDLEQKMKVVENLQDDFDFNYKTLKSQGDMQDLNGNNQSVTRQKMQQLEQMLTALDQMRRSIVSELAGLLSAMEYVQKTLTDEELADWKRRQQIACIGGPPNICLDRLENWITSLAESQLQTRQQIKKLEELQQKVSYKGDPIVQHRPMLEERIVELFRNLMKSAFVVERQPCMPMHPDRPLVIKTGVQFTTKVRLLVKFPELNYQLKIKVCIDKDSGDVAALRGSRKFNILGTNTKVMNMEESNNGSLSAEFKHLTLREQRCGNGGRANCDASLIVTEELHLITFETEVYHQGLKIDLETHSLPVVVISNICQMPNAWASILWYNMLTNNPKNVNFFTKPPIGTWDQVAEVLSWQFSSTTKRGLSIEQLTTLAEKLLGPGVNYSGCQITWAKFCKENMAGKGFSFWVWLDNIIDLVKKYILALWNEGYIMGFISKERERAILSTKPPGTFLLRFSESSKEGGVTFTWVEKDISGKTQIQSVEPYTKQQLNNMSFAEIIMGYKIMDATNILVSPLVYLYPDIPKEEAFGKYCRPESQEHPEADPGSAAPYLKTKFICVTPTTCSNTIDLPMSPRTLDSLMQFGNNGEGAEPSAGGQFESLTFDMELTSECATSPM

One may read the IC50 as the point on the concentration scale where inhibition reaches its midpoint. As to `O=C1c2ccccc2C(=O)c2oc(C(O)c3ccccc3)cc21` (stereo not shown) [Compound 302], the IC50 in assay [1] was 7.8 µM; in [2] it was 0.68 µM; in assay [3], 3.68 µM; in assay [4], 7.2 µM; in assay [5] it was 1.29 µM; in assay [7], 4.9 µM. The same compound registered an IC50 in assay [8] of 2.06 µM. Further, the “inhibition % 1 × MTT IC50” value in [6] (compound at 1 × MTT IC50, untreated Stat3 retarded band set as 100) came to 6%. Also, the “inhibition % 3 × MTT IC50” value in [6] (compound at 3 × MTT IC50, untreated Stat3 retarded band set as 100) was determined as 25%.
What is called pIC50 is the negative decadic logarithm of the IC50, by convention in mol/L. For the compound `CC(=O)c1cc2c(o1)C(=O)c1ccccc1C2=O` [Compound 401], the pIC50 was 6.24 in [9]; 6.48 in assay [10]; 6.37 in [1] (HeLa, Cervix, Table 3, read-out: IC50); 6.49 in [11]; 5.77 in [12]; 5.63 in assay [13]. Further, the pIC50 was 5.90 in [14]; 6.34 in assay [15]; 6.02 in assay [16]; 6.64 in [4] (H1299, Lung, Table 3, read-out: IC50); 6.41 in [17] (Head and Neck, Table 3, read-out: IC50); 6.96 in [18]. Also, the pIC50 in assay [7] (DU145, Prostate, Table 3, read-out: IC50) is 6.92; in assay [19], 6.20; in assay [20], 6.60. The IC50 in assay [1] came to 0.428 µM; in assay [4], 0.234 µM; in [17] (Table 4, read-out: IC50 (μM) FaDu) it was 0.39 µM; in assay [5] it was 0.33 µM; in assay [7], 0.116 µM; in [8], 0.34 µM. In addition, the “inhibition of Stat3 DNA binding (in words)” value in [6] (HeLa nuclear extract, FIG. 6A/6B) is reported as “Dose dependent inhibition of Stat3 DNA binding; also recorded: inhibits Stat3 DNA-binding activity”.

The values above are taken from patent publication US10851075B2, “Stat3 pathway inhibitors and cancer stem cell inhibitors” (Sumitomo Dainippon Pharma Oncology, Inc., priority 2007, dated 2020).
